From ChEMBL document CHEMBL4715760, “Balancing potency, metabolic stability and permeability in pyrrolopyrimidine-based EGFR inhibitors” (Eur J Med Chem, 2016) come the findings set out here.

The structures appear in SMILES notation.

In general, inhibition refers to the change of the read-out against control, counted positive when it falls. As usually defined, the IC50 is the concentration that inhibits the measured activity by half. One may read the Papp A→B as how fast a substance crosses the layer from the apical side. By half-life is commonly meant the time in which the quantity being followed falls by half. The fraction unbound is free concentration divided by total concentration.

Series [1] has as its target Angiopoietin-1 receptor (Homo sapiens) (UniProt Q02763). The experiment in a line: Inhibition of recombinant human GST-tagged TEK (817 to 1101 residues) expressed in baculovirus expression system at 500 nM using Tyr 05 as substrate incubated for 1 hr in presence of ATP at its Km concentration by Z'-LYTE assay relative to control.
In series [2] the test system is A-431. The experiment in a line: Antiproliferative activity against human A431 cells. The class given is functional, cell-based.
Series [3] deals with Dual specificity mitogen-activated protein kinase kinase 1 (Homo sapiens) (UniProt Q02750). The experiment in a line: Inhibition of recombinant full length human His-tagged MAP2K1 expressed in baculovirus expression system at 500 nM using Ser/Thr 03 as substrate incubated for 1 hr in presence of ATP at its Km concentration by Z'-LYTE assay relative to control.
The target in series [4] is Mitogen-activated protein kinase 1 (Homo sapiens) (UniProt P28482). The experiment in a line: Inhibition of recombinant full length GST-tagged human MAPK1 expressed in Escherichia coli at 500 nM using Ser/Thr 03 as substrate incubated for 1 hr in presence of 100 uM ATP by Z'-LYTE assay relative to control.
Series [5] deals with Vascular endothelial growth factor receptor 1 (Homo sapiens) (UniProt P17948). The experiment in a line: Inhibition of recombinant human GST-tagged FLT1 catalytic domain (781 to 1338 residues) expressed in baculovirus expression system at 500 nM using Tyr 04 peptide as substrate incubated for 1 hr in presence of ATP at its Km concentration by Z'-LYTE assay relative to control.

The target in series [6] is T1, Epidermal growth factor receptor (Homo sapiens, UniProt P00533). As to conditions: dose 500.0 nM, time 1.0 hrs.
Series [7] addresses Tyrosine-protein kinase HCK (Homo sapiens) (UniProt P08631). The series can be described thus: Inhibition of recombinant full length N-terminal GST-tagged human HCK expressed in baculovirus expression system at 500 nM using Tyr 02 as substrate incubated for 1 hr in presence of ATP at its Km concentration by Z'-LYTE assay relative to control.
For series [8], the target named is Tyrosine-protein kinase Yes (Homo sapiens) (UniProt P07947). The series can be described thus: Inhibition of full length recombinant GST-tagged human YES1 expressed in baculovirus expression system at 500 nM using Tyr 02 as substrate incubated for 1 hr in presence of ATP at its Km concentration by Z'-LYTE assay relative to control.
Series [9] has as its target Tyrosine-protein kinase JAK2 (Homo sapiens) (UniProt O60674). The series can be described thus: Inhibition of human recombinant GST tagged JAK2 catalytic domain expressed in baculovirus expression system at 500 nM using Tyr 06 as substrate incubated for 1 hr in presence of ATP at its Km concentration by Z'-LYTE assay relative to control.
Series [10] concerns the target Receptor tyrosine-protein kinase erbB-4 (Homo sapiens) (UniProt Q15303). The series can be described thus: Inhibition of recombinant human N-terminal GST-tagged ERBB4 catalytic domain (708 to 993 residues) expressed in baculovirus expression system at 500 nM using Tyr 01 peptide as substrate incubated for 1 hr in presence of ATP at its Km concentration by Z'-LYTE assay relative to control.

For another series, the system named is C-33-A. The series can be described thus: Antiproliferative activity against human C-33A cells incubated for 72 hrs by ATPlite luminescence assay. The series is classed as functional, cell-based. Background: ATP-based viability assays read luminescence as a measure of living cells.
The test system of a further series is AU565. The series can be described thus: Antiproliferative activity against human AU565 cells incubated for 72 hrs by ATPlite luminescence assay. The class given is functional, cell-based. Particulars: AU565, 72 h.
Another series has as its system CAL-27. The series can be described thus: Antiproliferative activity against human CAL27 cells. The class given is functional, cell-based.
The target of series [11] is Mast/stem cell growth factor receptor Kit (Homo sapiens) (UniProt P10721). The experiment in a line: Inhibition of human recombinant His-tagged c-Kit cytoplasmic domain (544 to 976 residues) expressed in baculovirus expression system at 500 nM using Tyr 06 as substrate incubated for 1 hr in presence of ATP at its Km concentration by Z'-LYTE assay relative to control.

In another series the test system is A549. The experiment in a line: Antiproliferative activity against human A549 cells assessed as inhibition of cell growth incubated for 72 hrs by Cell Titer Glo luminescent cell viability assay. The series is classed as functional, cell-based. As to conditions: A549, 72 h.
In a further series the test system is BXPC-3. The experiment in a line: Antiproliferative activity against human BXPC-3 cells measured for 96 hrs by sytox green dye staining based proliferation assay. The series is classed as functional, cell-based. Particulars: BXPC-3, 96 h.
A further series has as its system PC-9. The experiment in a line: Antiproliferative activity against human PC9 cells measured for 96 hrs by sytox green dye staining based proliferation assay. The series is classed as functional, cell-based. Particulars: PC-9, 96 h.
For the next series, the system named is FaDu. The series can be described thus: Antiproliferative activity against human FaDU cells assessed as inhibition of cell growth incubated for 72 hrs by Cell Titer Glo luminescent cell viability assay. The class given is functional, cell-based.
Series [12] deals with T1, Epidermal growth factor receptor. As to conditions: dose 100.0 nM, time 1.0 hrs.
The target is the same in series [13]. The experiment in a line: Inhibition of EGFR (unknown origin) using Tyr 04 peptide as substrate incubated for 1 hr by Z'-LYTE assay.
The next series concerns K562. The experiment in a line: Antiproliferative activity against human K562 cells assessed as inhibition of cell growth incubated for 72 hrs by Cell Titer Glo luminescent cell viability assay. Particulars: K562, 72 h. The series is classed as functional, cell-based.
Series [14] deals with Platelet-derived growth factor receptor alpha (Homo sapiens) (UniProt P16234). The series can be described thus: Inhibition of recombinant human GST-tagged PDGFRalpha (550 to 1089 residues) expressed in baculovirus expression system at 500 nM using Tyr 04 as substrate incubated for 1 hr in presence of ATP at its Km concentration by Z'-LYTE assay relative to control.
The nature of series [15]: Apparent permeability from apical to basolateral side in human Caco2 cells at 10 uM measured for 120 mins by LC-MS/MS analysis. As to conditions: Caco-2. Background: Caco-2 monolayers are a common model of the intestinal barrier.
For series [16], the target named is MAP kinase-activated protein kinase 2 (Homo sapiens) (UniProt P49137). The experiment in a line: Inhibition of recombinant human His-tagged full length MAPKAPK2 expressed in Escherichia coli expression system at 500 nM using Ser/Thr 04 as substrate incubated for 1 hr in presence of ATP at its Km concentration by Z'-LYTE assay relative to control.
Series [17] in a line: Metabolic stability in pooled human liver microsomes assessed as half life at 3 uM measured up to 45 mins in presence of NADPH by LC-MS/MS analysis. The series is classed as ADME, Microsome. As to conditions: pooled liver microsomes. (Liver microsomes are vesicles of endoplasmic reticulum, rich in cytochrome P450 enzymes.)
The nature of series [18]: Protein binding in plasma (unknown origin) assessed as unbound fraction at 5 uM by LC-MS/MS based equilibrium dialysis analysis.
Series [19] in a line: Metabolic stability in pooled human liver microsomes assessed as Clearance at 3 uM measured up to 45 mins in presence of NADPH by LC-MS/MS analysis. The series is classed as ADME, Microsome. As to conditions: pooled liver microsomes, read-out: CLH.
Series [20] has as its target Voltage-gated inwardly rectifying potassium channel KCNH2 (Homo sapiens, UniProt Q12809). The series can be described thus: Inhibition of human ERG expressed in CHO cells at -80 mV holding potential by IonWorks patch-clamp electrophysiology assay.
In series [21] the test system is A-431. The series can be described thus: Antiproliferative activity against human A431 cells assessed as inhibition of cell growth incubated for 72 hrs by Cell Titer Glo luminescent cell viability assay. The series is classed as functional, cell-based. As to conditions: A-431, 72 h.

Sequence of Receptor tyrosine-protein kinase erbB-4 (Homo sapiens) (Q15303 whole entry, the tested form may be a part): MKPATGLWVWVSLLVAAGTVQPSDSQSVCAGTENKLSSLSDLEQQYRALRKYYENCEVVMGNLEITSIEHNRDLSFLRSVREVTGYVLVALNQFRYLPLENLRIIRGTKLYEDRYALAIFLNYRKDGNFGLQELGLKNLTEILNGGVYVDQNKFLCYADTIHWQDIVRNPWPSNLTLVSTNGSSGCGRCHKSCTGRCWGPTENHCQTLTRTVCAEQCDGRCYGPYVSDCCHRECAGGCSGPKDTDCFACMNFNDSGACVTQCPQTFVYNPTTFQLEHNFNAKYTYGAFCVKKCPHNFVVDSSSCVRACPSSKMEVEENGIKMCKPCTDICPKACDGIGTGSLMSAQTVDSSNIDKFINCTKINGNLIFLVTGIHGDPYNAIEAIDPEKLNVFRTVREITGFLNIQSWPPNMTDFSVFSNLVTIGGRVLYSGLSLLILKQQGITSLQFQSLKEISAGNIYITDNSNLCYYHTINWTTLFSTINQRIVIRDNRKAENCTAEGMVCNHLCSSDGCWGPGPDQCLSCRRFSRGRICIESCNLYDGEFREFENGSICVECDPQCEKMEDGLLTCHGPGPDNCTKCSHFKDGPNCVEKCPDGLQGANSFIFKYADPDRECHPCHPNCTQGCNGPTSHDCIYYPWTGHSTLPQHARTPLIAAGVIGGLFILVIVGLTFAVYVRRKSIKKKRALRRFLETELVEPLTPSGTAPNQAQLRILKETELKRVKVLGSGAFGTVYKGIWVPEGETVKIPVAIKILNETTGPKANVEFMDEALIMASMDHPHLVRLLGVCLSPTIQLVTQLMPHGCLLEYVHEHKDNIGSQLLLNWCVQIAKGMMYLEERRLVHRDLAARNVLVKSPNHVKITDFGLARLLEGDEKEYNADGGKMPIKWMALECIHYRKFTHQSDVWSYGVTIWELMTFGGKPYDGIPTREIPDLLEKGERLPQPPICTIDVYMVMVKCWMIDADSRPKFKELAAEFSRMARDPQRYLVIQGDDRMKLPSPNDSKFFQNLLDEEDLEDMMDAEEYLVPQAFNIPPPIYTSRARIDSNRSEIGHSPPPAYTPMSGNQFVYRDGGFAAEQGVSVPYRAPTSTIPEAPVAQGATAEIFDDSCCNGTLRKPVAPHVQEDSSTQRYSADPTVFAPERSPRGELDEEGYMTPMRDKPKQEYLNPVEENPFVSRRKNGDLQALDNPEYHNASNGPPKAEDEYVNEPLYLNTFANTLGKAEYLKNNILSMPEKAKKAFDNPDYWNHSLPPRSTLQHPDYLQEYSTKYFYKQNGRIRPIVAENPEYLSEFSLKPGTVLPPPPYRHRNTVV
Sequence of Dual specificity mitogen-activated protein kinase kinase 1 (Homo sapiens) (Q02750 whole entry): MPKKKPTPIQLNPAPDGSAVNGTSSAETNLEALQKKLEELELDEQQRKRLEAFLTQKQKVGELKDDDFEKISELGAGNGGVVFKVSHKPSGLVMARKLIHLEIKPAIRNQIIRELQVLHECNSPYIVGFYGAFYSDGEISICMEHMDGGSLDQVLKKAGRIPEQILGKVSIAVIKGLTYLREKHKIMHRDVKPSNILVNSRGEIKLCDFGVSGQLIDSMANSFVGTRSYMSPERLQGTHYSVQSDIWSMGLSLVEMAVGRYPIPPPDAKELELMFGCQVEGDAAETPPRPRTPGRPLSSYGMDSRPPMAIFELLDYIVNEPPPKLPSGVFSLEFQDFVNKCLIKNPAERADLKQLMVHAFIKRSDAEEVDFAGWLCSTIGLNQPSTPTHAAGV
Sequence of Vascular endothelial growth factor receptor 1 (Homo sapiens) (P17948 whole entry, the tested form may be a part): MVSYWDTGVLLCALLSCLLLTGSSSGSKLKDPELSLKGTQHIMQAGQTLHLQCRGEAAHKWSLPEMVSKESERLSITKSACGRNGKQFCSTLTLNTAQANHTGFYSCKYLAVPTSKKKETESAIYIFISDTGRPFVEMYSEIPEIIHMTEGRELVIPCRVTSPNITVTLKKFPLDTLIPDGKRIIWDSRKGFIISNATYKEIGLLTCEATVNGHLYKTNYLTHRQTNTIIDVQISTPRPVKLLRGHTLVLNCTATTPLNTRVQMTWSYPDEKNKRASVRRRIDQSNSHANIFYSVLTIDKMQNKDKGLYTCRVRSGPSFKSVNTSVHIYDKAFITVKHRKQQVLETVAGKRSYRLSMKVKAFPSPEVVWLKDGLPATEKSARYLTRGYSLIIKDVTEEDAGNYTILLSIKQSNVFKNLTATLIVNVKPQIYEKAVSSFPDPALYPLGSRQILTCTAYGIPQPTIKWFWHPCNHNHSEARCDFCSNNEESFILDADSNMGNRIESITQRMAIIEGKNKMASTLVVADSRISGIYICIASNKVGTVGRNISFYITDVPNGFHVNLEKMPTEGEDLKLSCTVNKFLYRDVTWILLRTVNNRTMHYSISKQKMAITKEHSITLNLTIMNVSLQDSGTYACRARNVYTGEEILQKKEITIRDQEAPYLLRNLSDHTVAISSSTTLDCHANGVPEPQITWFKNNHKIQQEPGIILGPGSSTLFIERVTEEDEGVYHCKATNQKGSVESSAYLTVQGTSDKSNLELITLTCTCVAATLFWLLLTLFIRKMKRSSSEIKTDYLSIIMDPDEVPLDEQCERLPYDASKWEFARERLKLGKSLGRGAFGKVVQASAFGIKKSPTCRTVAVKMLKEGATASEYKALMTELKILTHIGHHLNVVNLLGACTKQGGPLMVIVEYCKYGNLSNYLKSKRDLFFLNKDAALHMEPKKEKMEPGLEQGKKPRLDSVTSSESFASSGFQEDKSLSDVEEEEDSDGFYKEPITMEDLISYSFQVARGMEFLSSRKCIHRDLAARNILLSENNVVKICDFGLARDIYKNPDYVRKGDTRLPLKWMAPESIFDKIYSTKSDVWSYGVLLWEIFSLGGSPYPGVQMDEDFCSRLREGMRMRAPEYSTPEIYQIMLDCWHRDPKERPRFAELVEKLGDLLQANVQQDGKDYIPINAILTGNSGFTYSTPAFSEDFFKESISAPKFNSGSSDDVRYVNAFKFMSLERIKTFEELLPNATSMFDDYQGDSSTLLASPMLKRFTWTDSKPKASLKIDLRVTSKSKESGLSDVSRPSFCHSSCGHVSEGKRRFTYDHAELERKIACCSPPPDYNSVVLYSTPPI
Sequence of Tyrosine-protein kinase JAK2 (Homo sapiens) (O60674 whole entry, the tested form may be a part): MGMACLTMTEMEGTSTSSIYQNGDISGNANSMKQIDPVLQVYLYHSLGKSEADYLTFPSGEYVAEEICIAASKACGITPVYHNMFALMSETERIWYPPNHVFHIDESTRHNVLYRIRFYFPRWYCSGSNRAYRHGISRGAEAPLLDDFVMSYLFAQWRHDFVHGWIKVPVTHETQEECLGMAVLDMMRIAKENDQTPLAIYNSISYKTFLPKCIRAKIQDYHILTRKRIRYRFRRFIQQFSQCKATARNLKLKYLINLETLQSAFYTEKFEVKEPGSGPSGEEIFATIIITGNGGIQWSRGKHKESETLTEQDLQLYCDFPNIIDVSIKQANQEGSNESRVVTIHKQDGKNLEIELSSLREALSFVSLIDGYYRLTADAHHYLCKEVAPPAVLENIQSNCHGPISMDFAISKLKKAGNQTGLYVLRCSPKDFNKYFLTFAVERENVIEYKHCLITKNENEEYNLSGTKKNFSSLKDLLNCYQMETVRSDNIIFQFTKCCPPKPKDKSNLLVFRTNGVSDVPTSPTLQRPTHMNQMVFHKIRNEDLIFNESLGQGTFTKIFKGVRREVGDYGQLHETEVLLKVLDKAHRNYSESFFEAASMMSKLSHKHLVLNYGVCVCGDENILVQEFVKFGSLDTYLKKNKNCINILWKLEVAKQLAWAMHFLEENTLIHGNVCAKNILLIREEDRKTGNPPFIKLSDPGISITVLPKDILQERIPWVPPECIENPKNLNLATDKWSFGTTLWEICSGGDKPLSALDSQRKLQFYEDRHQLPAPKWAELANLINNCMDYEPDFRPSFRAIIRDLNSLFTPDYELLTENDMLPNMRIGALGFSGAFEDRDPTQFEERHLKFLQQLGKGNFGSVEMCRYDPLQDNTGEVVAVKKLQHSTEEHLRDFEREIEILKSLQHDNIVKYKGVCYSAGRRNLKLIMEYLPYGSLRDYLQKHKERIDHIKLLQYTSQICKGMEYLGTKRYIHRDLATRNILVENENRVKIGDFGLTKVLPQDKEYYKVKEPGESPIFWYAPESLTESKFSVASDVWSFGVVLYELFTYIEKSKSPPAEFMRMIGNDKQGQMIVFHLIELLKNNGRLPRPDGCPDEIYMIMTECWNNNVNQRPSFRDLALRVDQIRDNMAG
Sequence of Tyrosine-protein kinase Yes (Homo sapiens) (P07947 2-543 limits assumed): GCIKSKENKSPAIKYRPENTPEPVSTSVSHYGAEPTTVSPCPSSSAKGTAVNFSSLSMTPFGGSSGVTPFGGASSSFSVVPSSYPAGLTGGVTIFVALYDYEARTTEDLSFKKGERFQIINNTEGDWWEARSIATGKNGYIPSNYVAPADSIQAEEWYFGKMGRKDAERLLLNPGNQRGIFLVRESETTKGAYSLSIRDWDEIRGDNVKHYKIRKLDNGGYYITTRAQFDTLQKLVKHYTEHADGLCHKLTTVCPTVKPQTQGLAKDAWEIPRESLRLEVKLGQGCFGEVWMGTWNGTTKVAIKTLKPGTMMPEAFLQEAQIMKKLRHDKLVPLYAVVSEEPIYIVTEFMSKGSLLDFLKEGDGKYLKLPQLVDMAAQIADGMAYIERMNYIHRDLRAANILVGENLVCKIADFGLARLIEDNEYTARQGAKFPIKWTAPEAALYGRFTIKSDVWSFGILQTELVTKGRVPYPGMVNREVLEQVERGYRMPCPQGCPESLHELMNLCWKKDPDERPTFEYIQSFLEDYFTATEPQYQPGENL
Sequence of Mitogen-activated protein kinase 1 (Homo sapiens) (P28482 whole entry, the tested form may be a part): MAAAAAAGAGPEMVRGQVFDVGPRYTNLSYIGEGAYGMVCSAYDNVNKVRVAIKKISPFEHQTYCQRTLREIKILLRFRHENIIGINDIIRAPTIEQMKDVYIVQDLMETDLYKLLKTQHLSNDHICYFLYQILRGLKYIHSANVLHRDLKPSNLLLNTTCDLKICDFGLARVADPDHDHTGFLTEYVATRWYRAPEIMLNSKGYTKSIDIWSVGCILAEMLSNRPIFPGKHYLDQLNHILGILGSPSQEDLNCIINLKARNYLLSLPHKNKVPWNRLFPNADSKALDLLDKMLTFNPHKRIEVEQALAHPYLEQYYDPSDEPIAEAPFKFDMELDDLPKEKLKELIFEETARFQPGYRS

With `OCC[C@@H](Nc1ncnc2[nH]c(-c3ccccc3)cc12)c1ccccc1`, the inhibition in [1] is -10%; in series [3] it was 5%; in series [4] it was 5%; in [5], -4%; in [6], 100%; in series [7] it was 31%. The inhibition in series [8] is 50%; in series [9] it was -1%; in series [10] it was 15%. Besides, the midpoint of inhibition in the series with A-431 [2], the IC50, lay at 0.8 µM.
With `OC[C@@H](Nc1ncnc2[nH]c(-c3ccccc3)cc12)c1ccccc1`, the inhibition in series [1] was 1%; in [3], -8%; in [4] it was 1%; in series [5] it was 8%; in [11], 20%; in series [6] it was 96%. The inhibition worked out at 99% in [12]; 29% in series [7]; 65% in series [8]; 34% in [9]; 51% in series [10]. In addition, the IC50 in the series with A-431 [2] is 0.3 µM; with C-33-A, 0.7 µM; with AU565, 2.5 µM; in the series with CAL-27 it was 2.7 µM; in the series with A549, above 100 µM; in the series with BXPC-3, 15 µM. The IC50 in the series on PC-9 was below 0.1 µM; with FaDu, above 33 µM; in series [13] it was 0.0004 µM; in the series with K562, 15 µM.
With `CCOc1ccccc1-c1cc2c(N[C@H](CO)c3ccccc3)ncnc2[nH]1`, the IC50 in the series with A-431 [2] was 9.2 µM. For the same compound, the inhibition in series [14] is -8%; in series [3], 10%; in series [4], 1%; in [5], 3%; in [6], 102%; in series [7] it was 27%. In addition, the inhibition is 56% in series [8], 11% in [9] and 62% in series [10].
Compound `CN(C)CCNCc1ccc(-c2cc3c(N[C@H](CO)c4ccccc4)ncnc3[nH]2)cc1F` displayed a 50% inhibitory concentration (IC50) in the series on A-431 [2] above 10 µM. In addition, the inhibition is 13% in series [3]; 12% in [5]; 1% in series [11]; 104% in series [6]; 36% in series [7]; 81% in series [8]. Further, the inhibition in series [9] was determined as 5%; in series [10] it was 74%.
With `C#Cc1cccc(Nc2ncnc3cc(OCCOC)c(OCCOC)cc23)c1` [ERLOTINIB], in [15], the Papp A→B at 2 h, 10 µM came out at 38.8 ×10⁻⁶ cm/s. Moreover, the IC50 in the series with A-431 [2] is 0.4 µM; with C-33-A, 0.9 µM; in the series on AU565, 3.3 µM; in the series with CAL-27, 1.3 µM; with A549 it was above 100 µM; in the series on BXPC-3 it was 1.9 µM. Besides, the 50% inhibitory concentration (IC50) is below 0.1 µM in the series with PC-9, above 11 µM in the series on FaDu, 55 µM with K562 and above 25 µM in series [20]. The inhibition in series [4] is 7%; in series [11], 17%; in series [16], -1%. Moreover, the half-life at 3 µM in series [17] was 31.7 min. The fraction unbound at 5 µM in series [18] was determined as 0.117. Also, the microsomal CLint at 3 µM in series [19] came out at 43.8 µL/min/mg.
As for `COc1ccccc1-c1cc2c(N[C@H](CO)c3ccccc3)ncnc2[nH]1`, the inhibition is 0% in [1]; 6% in series [14]; -4% in [3]; 1% in series [4]; 5% in series [5]; 17% in [11]. For the same compound, the inhibition is 100% in [6]; 100% in series [12]; 30% in [7]; 68% in [8]; 11% in [9]; 79% in series [10]. The IC50 in the series on A-431 [21] is 0.4 µM; in [13], 0.0008 µM.
